Test results published in patent US8748461B2, “Metalloenzyme inhibitor compounds” (Viamet Pharmaceuticals, Inc., priority 2011, dated 2014).
Values after ≈ are worked out from the molar mass of the structure shown.

Columns and labels:
[1] = test system: Septoria tritici (ATCC 26517); experiment: Minimum Inhibitory Concentration (MIC) vs. Septoria tritici; assay type: cell-based; details: 50% reduction in growth of S. tritici, 22° C., seven days; for MIC: Zymoseptoria tritici, ATCC26517, 168 h, read-out: Septoria Rating (MIC)
In short: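 Growth inhibition of S. tritici by CLSI-based filamentous-fungus microdilution, 2-fold series 16 to 0.016 μg/mL in RPMI-1640/MOPS with 2% DMSO. Inoculum approximately 5×10^4 cfu/mL; plates incubated 22° C, seven days, dark, unshaken.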

[2] = test system: Puccinia recondita tritici = Puccinia triticina; experiment: Fungicidal activity vs. leaf rust on wheat plants; assay type: in vivo; details: 50 ppm spray on wheat (Yuma), inoculated the following day, evaluated 7-9 days later; for pest or weed control at 50 ppm: read-out: Puccinia Rating (% Disease Control @ 50 ppm)
Description: D. Evaluation of Fungicidal Activity Vs. Leaf Rust (Causal Agent Puccinia recondita Tritici=Puccinia triticina; Bayer code PUCCRT). […] Each pot contained 3-8 seedlings. These plants were sprayed until wet with the formulated test compounds. The compounds were formulated at 50 ppm in 10 vol. % acetone plus 90 vol. % Triton X water (deionized water 99.99 wt %+0.01 wt % Triton X100), giving a “formulated test compound.” Formulated test compounds were applied to plants using a turn table sprayer fitted with two opposing air atomization nozzles which delivered approximately 1500 L/ha of spray volume. On the following day, the leaves were inoculated with an aqueous spore suspension of Puccinia recondita tritici and the plants were kept in high humidity overnight to permit spores to germinate and infect the leaf. The plants were then transferred to a greenhouse until disease developed on untreated control plants. Disease severity was evaluated 7-9 days later, depending on the speed of disease development. In each case of Table 3, the Puccinia rating scale is as follows: […]

Row | MIC [1] [µg/mL] | Septoria Rating (MIC) [1] | SMILES | pest or weed control at 50 ppm [2] [%] | Puccinia Rating (% Disease Control @ 50 ppm) [2]
1 | ≤ 0.5 |  | N#Cc1ccc(C(F)(F)COc2ccc(C(F)(F)C(O)(Cn3cnnn3)c3ccc(F)cc3F)nc2)cc1 (stereo not drawn) [Compound 121, 4-(2-((6-(2-(2,4-difluorophenyl)-1,1-difluoro-2-hydroxy-3-(1H-tetrazol-1-yl)propyl)pyridin-3-yl)oxy)-1,1-difluoroethyl)benzonitrile] | 80 to 100 | 
2 | ≤ 0.5 |  | OC(Cn1cnnn1)(c1ccc(F)cc1F)C(F)(F)c1ccc(Oc2ccc(Cl)cn2)cn1 (stereo not drawn) [Compound 95, 1-(5-((5-chloropyridin-2-yl)oxy)pyridin-2-yl)-2-(2,4-difluorophenyl)-1,1-difluoro-3-(1H-tetrazol-1-yl)propan-2-ol] | 80 to 100 | 
3 | > 4 |  | O=Cc1ccc(Oc2ccc(C(F)(F)C(O)(Cn3cnnn3)c3ccc(F)cc3F)nc2)nc1 (stereo not drawn) [Compound 101, 6-((6-(2-(2,4-difluorophenyl)-1,1-difluoro-2-hydroxy-3-(1H-tetrazol-1-yl)propyl)pyridin-3-yl)oxy)nicotinaldehyde] | < 40 | 
4 | 0.5 to 1.5 (≈ 1.06 to 3.18 µM) |  | N#Cc1ncc(Oc2ccc(C(F)(F)C(O)(Cn3cnnn3)c3ccc(F)cc3F)nc2)cn1 (stereo not drawn) [Compound 100, 5-((6-(2-(2,4-difluorophenyl)-1,1-difluoro-2-hydroxy-3-(1H-tetrazol-1-yl)propyl)pyridin-3-yl)oxy)pyrimidine-2-carbonitrile] | 60 to 79 | 
5 | ≤ 0.5 |  | OC(Cn1cnnn1)(c1ccc(F)cc1F)C(F)(F)c1ccc(OCC(F)(F)c2ccc(Cl)cc2)cn1 (stereo not drawn) [Compound 122, 1-(5-(2-(4-chlorophenyl)-2,2-difluoroethoxy)pyridin-2-yl)-2-(2,4-difluorophenyl)-1,1-difluoro-3-(1H-tetrazol-1-yl)propan-2-ol] | 80 to 100 | 
6 | ≤ 0.5 |  | N#Cc1ccc(Oc2ccc(C(F)(F)C(O)(Cn3cnnn3)c3ccc(F)cc3F)nc2)c(F)c1 (stereo not drawn) [Compound 89, 4-((6-(2-(2,4-Difluorophenyl)-1,1-difluoro-2-hydroxy-3-(1H-tetrazol-1-yl)propyl)pyridin-3-yl)oxy)-3-fluorobenzonitrile] | 80 to 100 | 
7 | ≤ 0.5 |  | OC(Cn1cnnn1)(c1ccc(F)cc1F)C(F)(F)c1ccc(OCC(F)(F)c2ccc(OC(F)F)cc2)cn1 (stereo not drawn) [Compound 120, 1-(5-(2-(4-(difluoromethoxy)phenyl)-2,2-difluoroethoxy)pyridin-2-yl)-2-(2,4-difluorophenyl)-1,1-difluoro-3-(1H-tetrazol-1-yl)propan-2-ol] | 80 to 100 | 
8 | ≤ 0.5 |  | OC(Cn1cnnn1)(c1ccc(F)cc1F)C(F)(F)c1ccc(OCc2ccc(C(F)(F)F)nc2)cn1 (stereo not drawn) [Compound 115, 2-(2,4-difluorophenyl)-1,1-difluoro-3-(1H-tetrazol-1-yl)-1-(5-((6-(trifluoromethyl)pyridin-3-yl)methoxy)pyridin-2-yl)propan-2-ol] | 80 to 100 | 

More lines, now with the values behind:

Row | SMILES | MIC [1] [µg/mL] | Septoria Rating (MIC) [1] | pest or weed control at 50 ppm [2] [%] | Puccinia Rating (% Disease Control @ 50 ppm) [2]
9 | OC(Cn1cnnn1)(c1ccc(F)cc1F)C(F)(F)c1ccc(Oc2ccc(Cl)cc2)cn1 (stereo not drawn) [Compound 7, 1-(5-(4-Chlorophenoxy)pyridin-2-yl)-2-(2,4-difluorophenyl)-1,1-difluoro-3-(1H-tetrazol-1-yl)propan-2-ol] | ≤ 0.5 |  | 80 to 100 | 
10 | OC(Cn1cnnn1)(c1ccc(F)cc1F)C(F)(F)c1ccc(Oc2ccccc2F)cn1 (stereo not drawn) [Compound 88, 2-(2,4-Difluorophenyl)-1,1-difluoro-1-(5-(2-fluorophenoxy)pyridin-2-yl)-3-(1H-tetrazol-1-yl)propan-2-ol] | ≤ 0.5 |  | 80 to 100 | 
11 | OC(Cn1cnnn1)(c1ccc(F)cc1F)C(F)(F)c1ccc(Oc2ccc(C(F)(F)F)cc2)cn1 (stereo not drawn) [Compound 75, 2-(2,4-Difluorophenyl)-1,1-difluoro-3-(1H-tetrazol-1-yl)-1-(5-(4-(trifluoromethyl)phenoxy)pyridin-2-yl)propan-2-ol] | ≤ 0.5 |  | 80 to 100 | 
12 | CC(C)COc1ccc(C(F)(F)C(O)(Cn2cnnn2)c2ccc(F)cc2F)nc1 (stereo not drawn) [Compound 43, 2-(2,4-Difluorophenyl)-1,1-difluoro-1-(5-isobutoxypyridin-2-yl)-3-(1H-tetrazol-1-yl)propan-2-ol] | ≤ 0.5 |  | 80 to 100 | 
13 | N#Cc1cccc(Oc2ccc(C(F)(F)C(O)(Cn3cnnn3)c3ccc(F)cc3F)nc2)c1 (stereo not drawn) [Compound 78, 3-((6-(2-(2,4-Difluorophenyl)-1,1-difluoro-2-hydroxy-3-(1H-tetrazol-1-yl)propyl)pyridin-3-yl)oxy)benzonitrile] | ≤ 0.5 |  | 80 to 100 | 
14 | OC(Cn1cnnn1)(c1ccc(F)cc1F)C(F)(F)c1ccc(OCc2ccc(F)cc2F)cn1 (stereo not drawn) [Compound 2, 1-(5-(2,4-Difluorobenzyloxy)pyridin-2-yl)-2-(2,4-difluorophenyl)-1,1-difluoro-3-(1H-tetrazol-1-yl)propan-2-ol] | ≤ 0.5 |  | 80 to 100 | 
15 | N#Cc1ccc(COc2ccc(C(F)(F)C(O)(Cn3cnnn3)c3ccc(Cl)cc3F)nc2)nc1 (stereo not drawn) [Compound 61, 6-(((6-(2-(4-Chloro-2-fluorophenyl)-1,1-difluoro-2-hydroxy-3-(1H-tetrazol-1-yl)propyl)pyridin-3-yl)oxy)methyl)nicotinonitrile] | ≤ 0.5 |  | 80 to 100 | 
16 | OC(Cn1cnnn1)(c1ccc(F)cc1F)C(F)(F)c1ccc(Oc2ccc(F)cc2)cn1 (stereo not drawn) [Compound 6, 2-(2,4-Difluorophenyl)-1,1-difluoro-1-(5-(4-fluorophenoxy)pyridin-2-yl)-3-(1H-tetrazol-1-yl)propan-2-ol] | ≤ 0.5 |  | 80 to 100 | 
17 | N#Cc1ccc(COc2ccc(C(F)(F)C(O)(Cn3ncnn3)c3ccc(F)cc3F)nc2)cc1 (stereo not drawn) [Compound 83, 4-(((6-(2-(2,4-Difluorophenyl)-1,1-difluoro-2-hydroxy-3-(2H-tetrazol-2-yl)propyl)pyridin-3-yl)oxy)methyl)benzonitrile] | 1.5 to 4 (≈ 3.1 to 8.26 µM) |  | 40 to 59 | 
18 | OC(Cn1cncn1)(c1ccc(F)cc1F)C(F)(F)c1ccc(OCc2cccc(F)c2F)cn1 (stereo not drawn) [Compound 45, 1-(5-((2,3-Difluorobenzyl)oxy)pyridin-2-yl)-2-(2,4-difluorophenyl)-1,1-difluoro-3-(1H-1,2,4-triazol-1-yl)propan-2-ol] | ≤ 0.5 |  | 80 to 100 | 
19 | OC(Cn1cnnn1)(c1ccc(F)cc1F)C(F)(F)c1ccc(OCc2ccccc2F)cn1 (stereo not drawn) [Compound 46, 2-(2,4-Difluorophenyl)-1,1-difluoro-1-(5-((2-fluorobenzyl)oxy)pyridin-2-yl)-3-(1H-tetrazol-1-yl)propan-2-ol] | ≤ 0.5 |  | 80 to 100 | 
20 | OC(Cn1cnnn1)(c1ccc(F)cc1F)C(F)(F)c1ccc(OCc2ccccc2)cn1 (stereo not drawn) [Compound 30, 1-(5-(Benzyloxy)pyridin-2-yl)-2-(2,4-difluorophenyl)-1,1-difluoro-3-(1H-tetrazol-1-yl)propan-2-ol] |  | A (≦0.5) |  | A (80-100)
21 | OC(Cn1cnnn1)(c1ccc(Cl)cc1F)C(F)(F)c1ccc(OCC2CC2)cn1 (stereo not drawn) [Compound 54, 2-(4-Chloro-2-fluorophenyl)-1-(5-(cyclopropylmethoxy)pyridin-2-yl)-1,1-difluoro-3-(1H-tetrazol-1-yl)propan-2-ol] | ≤ 0.5 |  | 80 to 100 | 
